Molecular target: USP30 (Homo sapiens (Human), UniProt Q70CQ3)
Test: USP30 biochemical IC50 assay
Conditions: fluorescence polarisation, TAMRA labelled peptide linked to ubiquitin substrate; enzyme and compound incubated 30 min at room temp; read after 2 h; read-out: IC50 range
Experimental: USP30 Biochemical IC50 Assay
Dilution plates were prepared at 21 times the final concentration (2100 μM for a final concentration of 100 μM) in 50% DMSO in a 96-well polypropylene V-bottom plate (Greiner #651201). A typical 8-point dilution series would be 100, 30, 10, 3, 1, 0.3, 0.1, 0.03 μM final. Reactions were performed in duplicate in black 384 well plates (small volume, Greiner 784076) in a final reaction volume of 21 μl. Either 1 μl of 50% DMSO or diluted compound was added to the plate. USP30 was diluted in reaction buffer (40 mM Tris, pH 7.5, 0.005% Tween 20, 0.5 mg/ml BSA, 5 mM beta-mercaptoethanol) to the equivalent of 0.05 μl/well and 10 μl of diluted USP30 was added to the compound. Enzyme and compound were incubated for 30 min at room temp. Reactions were initiated by the addition of 50 nM of TAMRA labelled peptide linked to ubiquitin via an iso-peptide bond as fluorescence polarisation substrate. Reactions were read immediately after addition of substrate and following a 2 h incubation at room temperature. Readings were performed on a Pherastar Plus (BMG Labtech). A Excitation 540 nm; A Emission 590 nm.

Chain of USP30 (Q70CQ3 57-517): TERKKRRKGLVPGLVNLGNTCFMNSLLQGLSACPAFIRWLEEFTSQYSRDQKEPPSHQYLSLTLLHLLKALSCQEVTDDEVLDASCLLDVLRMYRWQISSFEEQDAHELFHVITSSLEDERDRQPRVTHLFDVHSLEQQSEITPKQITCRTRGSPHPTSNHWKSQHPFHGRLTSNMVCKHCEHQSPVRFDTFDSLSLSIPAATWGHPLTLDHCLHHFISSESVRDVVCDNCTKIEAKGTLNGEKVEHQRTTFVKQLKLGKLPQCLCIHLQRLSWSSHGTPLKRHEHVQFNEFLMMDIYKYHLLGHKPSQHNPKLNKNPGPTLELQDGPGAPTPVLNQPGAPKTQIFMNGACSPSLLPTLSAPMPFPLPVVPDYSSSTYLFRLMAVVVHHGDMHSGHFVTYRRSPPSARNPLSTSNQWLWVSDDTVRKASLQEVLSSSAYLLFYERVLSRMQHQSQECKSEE

Compound | IC50 [nM]
CN(Cc1cc(-c2ccccc2)on1)C(=O)C=C1CCN(C#N)C1 [Example 25, 2-(1-Cyanopyrrolidin-3-ylidene)-N-methyl-N-((5-phenylisoxazol-3-yl)methyl)acetamide] | 100 to 1000
N#Cc1ccc(C2CN(C(=O)C[C@@H]3CCN(C#N)C3)C2)cc1 [Example 52, (S)-3-(2-(3-(4-cyanophenyl)azetidin-1-yl)-2-oxoethyl)pyrrolidine-1-carbonitrile] | 100 to 1000
N#CN1CCC(CC(=O)Nc2nc3ccc(Cl)cc3s2)C1 (stereo not shown) [Example 5, N-(6-Chlorobenzo[d]thiazol-2-yl)-2-(1-cyanopyrrolidin-3-yl)acetamide] | 100 to 1000
N#CN1CCC(CC(=O)Nc2ccc(C(F)(F)F)nc2)C1 (stereo not shown) [Example 4, 2-(1-Cyanopyrrolidin-3-yl)-N-(6-(trifluoromethyl)pyridin-3-yl)acetamide] | 1000 to 10000
N#CN1CCC(CC(=O)Nc2nnc(-c3ccccc3)s2)C1 (stereo not shown) [Example 41, 2-(1-cyanopyrrolidin-3-yl)-N-(5-phenyl-1,3,4-thiadiazol-2-yl)acetamide] | 100 to 1000
N#CN1CCC(=CC(=O)Nc2ccc(Cl)c(C(F)(F)F)c2)C1 [Example 20, N-(4-Chloro-3-(trifluoromethyl)phenyl)-2-(1-cyanopyrrolidin-3-ylidene)acetamide] | 100 to 1000
COc1ccc(C2CN(C(=O)C[C@@H]3CCN(C#N)C3)C2)cc1-c1ccn[nH]1 [Example 39, (S)-3-(2-(3-(4-Methoxy-3-(1H-pyrazol-5-yl)phenyl)azetidin-1-yl)-2-oxoethyl)pyrrolidine-1-carbonitrile] | 10 to 100
N#CN1CCC(CC(=O)NC2CN(c3ccccn3)C2)C1 (stereo not shown) [Example 47, 2-(1-cyanopyrrolidin-3-yl)-N-(1-(pyridin-2-yl)azetidin-3-yl)acetamide] | 100 to 1000
N#CN1CCC(CC(=O)N2CC(c3ccc(O)cc3)C2)C1 (stereo not shown) [Example 58, 3-(2-(3-(4-hydroxyphenyl)azetidin-1-yl)-2-oxoethyl)pyrrolidine-1-carbonitrile] | 100 to 1000
N#CN1CCC(CC(=O)N2CC(Oc3ccccc3)C2)C1 (stereo not shown) [Example 12, 3-(2-Oxo-2-(3-phenoxyazetidin-1-yl)ethyl)pyrrolidine-1-carbonitrile] | 100 to 1000
N#CN1CCC(CC(=O)Nc2cc(-c3ccccc3)no2)C1 (stereo not shown) [Example 6, 2-(1-Cyanopyrrolidin-3-yl)-N-(3-phenylisoxazol-5-yl)acetamide] | 100 to 1000
N#Cc1cccc(C2CN(C(=O)C[C@@H]3CCN(C#N)C3)C2)c1 [Example 56, (S)-3-(2-(3-(3-cyanophenyl)azetidin-1-yl)-2-oxoethyl)pyrrolidine-1-carbonitrile] | 100 to 1000
CN(Cc1cccc(-c2ccncc2)c1)C(=O)C=C1CCN(C#N)C1 [Example 26, 2-(1-Cyanopyrrolidin-3-ylidene)-N-methyl-N-(3-(pyridin-4-yl)benzyl)acetamide] | 100 to 1000
N#Cc1ccc(C2CN(C(=O)C[C@@H]3CCN(C#N)C3)C2)nc1 [Example 57, (S)-6-(1-(2-(1-cyanopyrrolidin-3-yl)acetyl)azetidin-3-yl)nicotinonitrile] | 100 to 1000
N#CN1CCC(CC(=O)NCCc2ccccc2)C1 (stereo not shown) [Example 11, 2-(1-Cyanopyrrolidin-3-yl)-N-phenethylacetamide] | 1000 to 10000
Cc1ccc(NC(=O)C=C2CCN(C#N)C2)cc1Cl [Example 19, N-(3-Chloro-4-methylphenyl)-2-(1-cyanopyrrolidin-3-ylidene)acetamide] | 100 to 1000
CN(Cc1ccc(N2CCCC2)cc1)C(=O)C=C1CCN(C#N)C1 [Example 28, 2-(1-Cyanopyrrolidin-3-ylidene)-N-methyl-N-(4-(pyrrolidin-1-yl)benzyl)acetamide] | 100 to 1000
N#CN1CCC(CC(=O)Nc2cccc(Cl)c2)C1 (stereo not shown) [Example 2, N-(3-Chlorophenyl)-2-(1-cyanopyrrolidin-3-yl)acetamide] | 100 to 1000
N#CN1CC[C@H](CC(=O)Nc2cc(-c3cccc(Cl)c3)no2)C1 [Example 36, (R)—N-(3-(3-Chlorophenyl)isoxazol-5-yl)-2-(1-cyanopyrrolidin-3-yl)acetamide] | 1 to 10
N#CN1CC[C@@H](CC(=O)Nc2cc(-c3ccc(Cl)cc3)no2)C1 [Example 34, (S)—N-(3-(4-Chlorophenyl)isoxazol-5-yl)-2-(1-cyanopyrrolidin-3-yl)acetamide] | 100 to 1000
COc1ccc(C2CN(C(=O)CC3CCN(C#N)C3)C2)cc1 (stereo not shown) [Example 1, 3-(2-(3-(4-Methoxyphenyl)azetidin-1-yl)-2-oxoethyl)pyrrolidine-1-carbonitrile] | 100 to 1000
CN(Cc1ccc(Cl)c(Cl)c1)C(=O)C=C1CCN(C#N)C1 [Example 33, 2-(1-Cyanopyrrolidin-3-ylidene)-N-(3,4-dichlorobenzyl)-N-methylacetamide] | 100 to 1000

Compound | IC50 [nM]
COc1cccc(C2CN(C(=O)CC3CCN(C#N)C3)C2)c1 (stereo not shown) [Example 13, 3-(2-(3-(3-Methoxyphenyl)azetidin-1-yl)-2-oxoethyl)pyrrolidine-1-carbonitrile] | 100 to 1000
N#CN1CC[C@H](CC(=O)Nc2cc(-c3cccc(OC(F)(F)F)c3)no2)C1 [Example 54, (R)-2-(1-cyanopyrrolidin-3-yl)-N-(3-(3-(trifluoromethoxy)phenyl)isoxazol-5-yl)acetamide] | 1 to 10
COc1ccc(C2CN(C(=O)C[C@@H]3CCN(C#N)C3)C2)cc1-c1cnn(C)c1 [Example 67, (S)-3-(2-(3-(4-methoxy-3-(1-methyl-1H-pyrazol-4-yl)phenyl)azetidin-1-yl)-2-oxoethyl)pyrrolidine-1-carbonitrile] | 10 to 100
N#CN1CCC(CC(=O)Nc2ccc(Cl)c(Cl)c2)C1 (stereo not shown) [Example 9, 2-(1-Cyanopyrrolidin-3-yl)-N-(3,4-dichlorophenyl)acetamide] | 100 to 1000
COc1ccc(C2CN(C(=O)C=C3CCN(C#N)C3)C2)cc1 [Example 17, 3-(2-(3-(4-Methoxyphenyl)azetidin-1-yl)-2-oxoethylidene)pyrrolidine-1-carbonitrile] | 100 to 1000
CN(Cc1cc(-c2ccccc2)no1)C(=O)C=C1CCN(C#N)C1 [Example 27, 2-(1-Cyanopyrrolidin-3-ylidene)-N-methyl-N-((3-phenylisoxazol-5-yl)methyl)acetamide] | 100 to 1000
N#CN1CCC(=CC(=O)Nc2ccc(Oc3ccccc3)cc2)C1 [Example 22, 2-(1-Cyanopyrrolidin-3-ylidene)-N-(4-phenoxyphenyl)acetamide] | 10 to 100
N#CN1CCC(CC(=O)Nc2ncc(-c3ccccc3)s2)C1 (stereo not shown) [Example 10, 2-(1-Cyanopyrrolidin-3-yl)-N-(5-phenylthiazol-2-yl)acetamide] | 100 to 1000
N#CN1CC[C@@H](CC(=O)Nc2cc(-c3cccc(Cl)c3)no2)C1 [Example 42, (S)-N-(3-(3-chlorophenyl)isoxazol-5-yl)-2-(1-cyanopyrrolidin-3-yl)acetamide] | 10 to 100
N#CN1CC[C@@H](CC(=O)Nc2nnc(-c3ccccc3)s2)C1 [Example 64, (S)-2-(1-cyanopyrrolidin-3-yl)-N-(5-phenyl-1,3,4-thiadiazol-2-yl)acetamide] | 100 to 1000
N#CN1CC[C@@H](CC(=O)Nc2nnc(-c3cccc(Cl)c3)o2)C1 [Example 48, (S)-N-(5-(3-chlorophenyl)-1,3,4-oxadiazol-2-yl)-2-(1-cyanopyrrolidin-3-yl)acetamide] | 100 to 1000
CC(C(=O)N1CC(c2ccc(C#N)cc2)C1)[C@@H]1CCN(C#N)C1 (single isomer, unassigned) [Example 62] | 100 to 1000
N#CN1CCC(=CC(=O)NCc2cc(C(F)(F)F)ccc2F)C1 [Example 31, 2-(1-Cyanopyrrolidin-3-ylidene)-N-(2-fluoro-5-(trifluoromethyl)benzyl)acetamide] | 1000 to 10000
COc1ccc(C2CN(C(=O)C[C@@H]3CCN(C#N)C3)C2)cc1-c1ccnn1C [Example 40, (S)-3-(2-(3-(4-Methoxy-3-(1-methyl-1H-pyrazol-5-yl)phenyl)azetidin-1-yl)-2-oxoethyl)-pyrrolidine-1-carbonitrile] | 10 to 100
COc1cccc(-c2cc(NC(=O)C[C@@H]3CCN(C#N)C3)on2)c1 [Example 37, (S)—N-(3-(3-Methoxyphenyl)isoxazol-5-yl)-2-(1-cyanopyrrolidin-3-yl)acetamide] | 100 to 1000
N#Cc1cccc(-c2nnc(NC(=O)CC3CCN(C#N)C3)o2)c1 (stereo not shown) [Example 49, N-(5-(3-cyanophenyl)-1,3,4-oxadiazol-2-yl)-2-(1-cyanopyrrolidin-3-yl)acetamide] | 100 to 1000
CN(C(=O)C=C1CCN(C#N)C1)c1nc2ccccc2s1 [Example 32, N-(Benzo[d]thiazol-2-yl)-2-(1-cyanopyrrolidin-3-ylidene)-N-methylacetamide] | 100 to 1000
CC(C(=O)N1CC(c2ccc(C#N)cc2)C1)[C@@H]1CCN(C#N)C1 (single isomer, unassigned) [Example 61] | 1000 to 10000
COc1ccc2nc(NC(=O)CC3CCN(C#N)C3)sc2c1 (stereo not shown) [Example 3, 2-(1-Cyanopyrrolidin-3-yl)-N-(6-methoxybenzo[d]thiazol-2-yl)acetamide] | 100 to 1000
N#CN1CCC(=CC(=O)N2CC(c3ccccc3)C2)C1 [Example 18, 3-(2-Oxo-2-(3-phenylazetidin-1-yl)ethylidene)pyrrolidine-1-carbonitrile] | 100 to 1000
N#Cc1ccc(NC(=O)CC2CCN(C#N)C2)nc1 (stereo not shown) [Example 46, N-(5-cyanopyridin-2-yl)-2-(1-cyanopyrrolidin-3-yl)acetamide] | 1000 to 10000

From patent US11014912B2, “Cyanopyrrolidine derivatives with activity as inhibitors of USP30” (MISSION THERAPEUTICS LIMITED, priority 2016, dated 2021)
